These are literature values, as cited in US20250228825A1, “COMPOSITIONS OF RAPAMYCIN AND THEIR USE IN THE TREATMENT OF M[…] MALFORMATION” (priority 2021, published 2025).

The series relates to LM lesions. Particulars: patients with LM.

Molecules are shown by their SMILES.

Consider `CO[C@H]1C[C@@H]2CC[C@@H](C)[C@@](O)(O2)C(=O)C(=O)N2CCCC[C@H]2C(=O)O[C@H]([C@H](C)C[C@@H]2CC[C@@H](O)[C@H](OC)C2)CC(=O)[C@H](C)/C=C(\C)[C@@H](O)[C@@H](OC)C(=O)[C@H](C)C[C@H](C)/C=C/C=C/C=C/1C` [sirolimus, rapamycin], for which the effectiveness (reported in another review) is 84.5%. Moreover, for the setting “reported in one review”, the “pooled clinical effectiveness (partial or complete response)” value is recorded as 94.9%.
